Values quoted from earlier work, collected in US20220177978A1, “METHODS OF PREDICTING AND PREVENTING CANCER IN PATIENTS HAVING PREMALIGNANT LESIONS” (INSERM (Institut National de la Santé et de la Recherche …, priority 2019, published 2022).

Columns and labels:
[1] = biological target: JAK2 (Homo sapiens, UniProt O60674)
[2] = test system: other JAK-family kinases

JAK2, sequence (O60674 whole entry, species assumed): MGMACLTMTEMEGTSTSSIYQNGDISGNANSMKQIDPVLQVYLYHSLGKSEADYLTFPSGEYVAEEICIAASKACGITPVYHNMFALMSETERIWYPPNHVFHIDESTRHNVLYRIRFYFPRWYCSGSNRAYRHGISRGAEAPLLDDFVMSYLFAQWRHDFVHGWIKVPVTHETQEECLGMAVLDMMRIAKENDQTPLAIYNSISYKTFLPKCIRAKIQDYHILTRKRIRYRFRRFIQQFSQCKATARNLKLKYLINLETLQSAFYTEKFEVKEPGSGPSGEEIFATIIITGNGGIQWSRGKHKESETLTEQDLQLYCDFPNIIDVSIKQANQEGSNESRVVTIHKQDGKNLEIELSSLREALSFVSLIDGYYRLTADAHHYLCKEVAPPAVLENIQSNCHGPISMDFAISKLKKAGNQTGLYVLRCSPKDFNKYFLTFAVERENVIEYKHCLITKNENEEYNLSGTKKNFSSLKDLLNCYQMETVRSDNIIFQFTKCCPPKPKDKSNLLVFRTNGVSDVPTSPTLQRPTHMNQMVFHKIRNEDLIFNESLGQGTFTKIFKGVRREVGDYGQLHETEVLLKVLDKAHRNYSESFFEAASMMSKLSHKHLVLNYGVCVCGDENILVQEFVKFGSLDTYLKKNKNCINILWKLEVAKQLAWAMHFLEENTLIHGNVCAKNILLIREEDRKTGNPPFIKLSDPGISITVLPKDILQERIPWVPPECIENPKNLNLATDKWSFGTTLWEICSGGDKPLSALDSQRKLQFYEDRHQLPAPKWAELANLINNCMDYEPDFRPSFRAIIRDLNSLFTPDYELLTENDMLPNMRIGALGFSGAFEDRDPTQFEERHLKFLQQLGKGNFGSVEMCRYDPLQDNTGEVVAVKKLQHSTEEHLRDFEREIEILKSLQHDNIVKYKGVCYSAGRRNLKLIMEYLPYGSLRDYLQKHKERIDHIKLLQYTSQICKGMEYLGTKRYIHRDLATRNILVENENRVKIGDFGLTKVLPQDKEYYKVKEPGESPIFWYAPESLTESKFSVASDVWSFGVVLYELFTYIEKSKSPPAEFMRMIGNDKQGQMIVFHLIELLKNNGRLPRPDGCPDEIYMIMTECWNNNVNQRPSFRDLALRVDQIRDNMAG

Compound: C[C@H](Nc1cc(-c2cnn(C)c2)cc(Nc2cnccn2)n1)c1ccc(F)cc1 [NS018]
- IC50 [1]: < 1 nM
- selectivity for JAK2 over other JAK-family kinases [2]: 30-50 fold
